{"source": "patent US20170274005A1", "about": "“TREATMENT OF RETINITIS PIGMENTOSA USING HYALURONIC ACID-CARBON NANOMATERIAL-PHOTOSENSITIZER COMPLEX” (POSTECH ACADEMY-INDUSTRY FOUNDATION, priority 2016, published 2017)", "key": {"[1]": {"assay": "Analysis of prevention of active oxygen using DPPH", "conditions": "aqueous solution, 0 to 100 μg/mL based on the amount of Ce6, FIG. 2"}, "[2]": {"system": "retinal pigment epithelium cell", "assay": "MTT assay of retinal pigment epithelium cell treated using sodium iodate", "type": "cell-based", "conditions": "pre-treatment, then 5 mM sodium iodate, 24 hours, FIG. 5"}}}
{"substance": "chlorine e6 [Ce6]", "values": [{"measurement": "active oxygen suppression ability", "setting": "[1]", "result": 60, "unit": "%"}, {"measurement": "viability of the pre-treated cell versus cell treated using sodium iodate only", "setting": "[2]", "result": "lower"}]}
